Here are results for 1 compound from article PMC3125149, “SCYX-7158, an Orally-Active Benzoxaborole for the Treatment of Stage 2 Human African Trypanosomiasis” (PLoS Neglected Tropical Diseases, 2011).

For series [1], the system named is T. b. brucei, T. b. rhodesiense and T. b. gambiense strains. The series is described as follows: Whole cell assays across representative strains (text summary of Table 1). The format is cell-based. The conditions noted are these: Trypanosoma brucei; 72 h incubation; range over strains of Table 1; read-out: IC50 values across parasite strains. Here is the method:
Compounds to be tested were serially diluted in DMSO and added to 96-well plates to give final concentrations ranging from 5 to 0.01 µg/mL. T. b. brucei parasites in the log phase of growth were diluted in HMI-9 media and added to each well for a final concentration of 1×10^4 parasites per well. For the sensitivity assays using T. b. rhodesiense and T. b. gambiense, pararasites were cultured in MEM supplemented with Baltz components (8), diluted in the aforementioned culture media, and added to each well at a density of 1×10^3 cells/well. The final concentration of DMSO was 0.5% and the total volume was 100 µL/well. After a 72 h incubation, resazurin (Sigma-Aldrich, St. Louis, MO) was added to each well [20 µL of 25 mg/100 mL stock in phosphate buffered saline (PBS)] and incubated for an additional 4–6 h.[22] To assess cell viability, fluorescence was quantified using an EnVision Multilabel Plate Reader (Perkin Elmer, Waltham, MA) at an excitation wavelength of 530 nm and emission of 590 nm. Triplicate data points were averaged to generate sigmoidal dose-response curves and determine IC50 values using XLfit curve fitting software from IDBS (Guilford, UK). The IC50 is defined as the amount of compound required to decrease parasite or cell viability by 50% compared to those grown in the absence of the test compound. […]

The test system of series [2] is T. b. brucei 427. The series is described as follows: Reversibility of trypanocidal effects (wash-out). The format is cell-based. The conditions noted are these: at about 5 times the IC50. Here is the method: To establish the time and concentration required to cause persistent or irreversible effects by oxaboroles, T. b. brucei parasites were assessed for their ability to recover from transient exposure to test compounds. Trypanosomes were seeded in clear 96-well V-bottom plates at a density of 1×10^5 parasites per well and incubated with serially diluted test compound (from 10 to 0.02 µg/mL). One plate was prepared for each time point. At the designated time, a plate was removed from the incubator and spun at 2,600 g for 5 min to sediment the parasites. The supernatant was aspirated and 100 µL of warmed HMI-9 media was added to each well. The wash was repeated twice more. The parasites were resuspended in 100 µL of warmed media and 20 µL of this suspension was added to 80 µL of HMI-9 media in triplicate plates. Following a 72 h incubation, resazurin was added and trypanocidal activity determined as described for the in vitro sensitivity assay.

Series [3] in a line: Metabolic stability in liver microsomal and S9 fractions. Conditions: CD-1 (mouse), Sprague-Dawley (rat), beagle (dog), cynomolgus monkey, human, liver microsomes and liver S9 fractions, all species. In kind it is in vitro ADME, rodents, cynomolgus monkey and humans. Here is the method: Metabolic stability was evaluated using mixed gender CD-1 mouse or human liver microsomal fractions (XenoTech, Lenexa, KS). Compounds (1 µM) were incubated with microsomes (1.05 mg/mL protein) for 0, 10, 15 and 30 min at 37°C in an oxygen and humidity enriched environment in the presence of an NADPH-regenerating system. Each compound was also incubated, under the same conditions, with CD-1 mouse, Sprague-Dawley rat, beagle dog, cynomolgus monkey, and human liver S9 sub-cellular fractions (2 mg/mL protein)[23] for 0, 15, 30 and 60 min. At the end of each incubation period, the reactions were quenched with 3 volumes of ice-cold methanol. Supernatants from the incubation mixtures were analyzed for parent compound by LC-MS/MS. Metabolic competencies of microsomal and S9 fractions were confirmed using control compounds 7-ethoxycoumarin, propranolol and verapamil. Intrinsic clearance (CLint) and half-life (t½) values were determined for each compound.

A short description of series [4]: Aqueous solubility. Conditions: pH 7.4 PBS. In kind it is physicochemical. An excerpt:
Table 3 In vitro physicochemical and ADME properties of SCYX-7158. | column: Value

Series [5] is described as follows: In vivo pharmacokinetic characterization (abstract summary). Details: species or system rodents. Here is the method: The blood distribution, CNS disposition and pharmacokinetics of SCYX-7158 were evaluated in infected or non-infected rodents following intravenous or oral administration of compounds. Pharmacokinetics and bioavailability of SCYX-7158 were also evaluated in non-infected beagle dogs and cynomolgus monkeys. In-life phases of non-infected rodent studies were performed at Vivisource (Waltham, MA); studies in non-naïve cynomolgus monkeys were performed by SNBL USA (Everett, WA).
Male CD-1 mice (∼25 g), male Sprague-Dawley rats (∼225 g), or male cynomolgus monkeys (∼3–5 kg) were administered test article by either bolus intravenous injection (IV) or oral gavage. Animals in the IV groups received a single 2 mg/kg IV dose. Animals received oral doses of test articles as either single or twice daily doses ranging from 8 mg/kg to 50 mg/kg. All doses were administered as clear colorless solutions in either 50% (v/v) PEG 400: 20% (v/v) ethanol: 30% (v/v) carboxymethylcellulose (0.5% w/v in sterile water for injection) or 2% (v/v) ethanol: 5% (w/v) dextrose in sterile water for injection. Doses were administered in a volume of 4 mL/kg, 2 mL/kg or 1 mL/kg for mice, rats and cynomolgus monkeys, respectively. For pharmacokinetic analysis, blood samples were collected from mice via cardiac puncture under terminal anaesthesia. Serial blood samples were collected from rats via a vascular access port located in the lateral saphenous vein. Mice and rats were euthanized in a CO2 chamber before collection of terminal blood samples or brain tissue. Blood samples were collected into polypropylene tubes containing K2EDTA anticoagulant and stored on ice until centrifuged for the preparation of plasma. Plasma was stored at −70°C. Whole brains were collected following decapitation, blotted dry, placed into polypropylene containers and then immediately frozen at approximately −70°C. CSF was collected from rats via cisterna magna puncture, placed in sterile polypropylene tubes, and stored at approximately −70°C.

Series [6] in a line: Pharmacokinetics in uninfected mice. In kind it is in vivo, mouse.

Molecules are shown by their SMILES. Converted amounts (≈) assume the structure as drawn.

Turning to `CC1(C)OB(O)c2cc(NC(=O)c3ccc(F)cc3C(F)(F)F)ccc21` [SCYX-7158], the IC50 (as a rule, the concentration that gives 50% inhibition) in series [1] was in the range of 0.07 to 0.37 µg/mL (≈ 0.191 to 1.01 µM). Also, the “exposure time sufficient to produce irreversible effects on trypanosome survival” value in series [2] lay in the range of 10 to 12 h. Besides, the half-life – broadly, how long it takes for the measured level to halve – at 1 µM in series [3] was greater than 5.83 h. The microsomal CLint at 1 µM in series [3] (read-out: intrinsic clearance) is less than 5 µL/min/mg. The solubility – broadly, the dissolved amount per volume that the medium holds – in series [4] came to 25 µM (≈ 9.18 µg/mL). In addition, the half-life in series [5] (male, rodents and non-human primates, plasma, read-out: elimination half-life (converted)) is 24 h. Further, in series [5] (rodents, 25 mg/kg oral dose), the “brain AUC0–24 hr” value was greater than 100000 ng·h/mL and the “brain Cmax” value is greater than 10000 ng/mL. Also, the “brain AUC0–24 h” value in series [6] (4.3 mg/kg intravenous, brain) stood at 5570 ng·h/mL. In addition, the clearance – broadly, the volume of plasma or blood freed of the substance per unit of time – in series [6] (male, CD-1, mouse, plasma, 4.3 mg/kg intravenous, read-out: systemic clearance (CL) (converted)) was 1.48 mL/min/kg. The Vd in series [6] (male, CD-1, mouse, plasma, 4.3 mg/kg intravenous, read-out: volume of distribution (Vdss)) was found to be 1.69 L/kg. Moreover, the Cmax (usually the peak of the concentration-time curve) in series [6] (male, CD-1, mouse, oral dose of 56 mg/kg SCYX-7158, plasma) worked out at 18000 ng/mL.
